# *1 amine or outer side, *2 acyl side, *3 side chain or, on linkers, in order; H or OH if unused. Where a SMILES comes first, the peptide text is derived from it. [ ]: non-standard residue; d: D form. Glyψ(E-CHCH)Leu = CC(C)C[C@H](/C=C/CN[*:1])C(=O)[*:2]; X2 = O=C(/C=C/[C@@H](O)[C@H](Cc1ccccc1)N[*:1])[*:2]; X4 = O=C(CCC(=O)[*:2])[C@H](Cc1ccccc1)N[*:1]; X7 = O=C(C/C=C/[C@H](Cc1ccccc1)N[*:1])[*:2]; Phe(3-Me) = Cc1cccc(C[C@H](N)C(=O)O)c1; X1 = CC(C)C[C@H](CCCN[*:1])C(=O)[*:2]; Arg(Me) = CNC(=N)NCCC[C@H](N)C(=O)O; Dap(CONH2) = NC(=O)NC[C@H](N)C(=O)O; Ala(cPr) = N[C@@H](CC1CC1)C(=O)O; Hyp = O=C(O)[C@@H]1C[C@@H](O)CN1; 4Pal = N[C@@H](Cc1ccncc1)C(=O)O; Cha = N[C@@H](CC1CCCCC1)C(=O)O; Nva = CCC[C@H](N)C(=O)O
# Test system: metastin receptors
# Experiment: Measurement of agonist activity by assaying changes in intracellular calcium ion level (FLIPR, Fluo-4 NW)
# Type: cell-based, human
# Settings: specific activity of the EC50 of a test compound based on the EC50 of Metastin (45-54), metastin receptor expression CHO cells
# Experimental: 1) Preparation of Human Metastin and Rat Metastin Stable Expression Cell Lines
# Human metastin and rat metastin stable expression cell lines were obtained by transfecting the expression plasmid for animal cells into CHO/dhfr^− cells using CellPhect Transfection Kit (manufactured by GE Healthcare). First, 240 μL of Buffer A (attached to CellPhect Transfection Kit) was added to 9.6 μg of plasmid DNA dissolved in 240 μL of distilled water followed by stirring. After the mixture was settled for 10 minutes, 480 μL of Buffer B (attached to CellPhect Transfection Kit) was added to the mixture, which was vigorously stirred to form liposomes containing the DNA. Then, 4×10^5 CHO/dhfr^− cells (obtained from ATCC) were inoculated on a 60 mm Petri dish. After culturing the cells in Ham's F-12 medium (manufactured by Nissui Seiyaku Co., Ltd.) supplemented with 10% fetal bovine serum (manufactured by BIO […], Inc.) at 37° C. for 2 days in 5% carbon dioxide gas, […] of the liposomes were dropwise added to the cells on the Petri dish. After culturing the cells in a CO2 incubator (5% CO2, 37° C.) for 6 hours, the cells were washed twice with serum-free Ham's F-12 medium and 3 mL of 15% glycerol was added to the cells on the Petri dish followed by treatment for 2 minutes. The cells were again washed twice with serum-free Ham's F-12 medium followed by incubation in Ham's F-12 medium supplemented with 10% fetal bovine serum in a CO2 incubator (5% CO2, 37° C.) for 15 hours. The cells were dispersed by trypsin treatment to recover from the Petri dish. The recovered cells were inoculated on a 6-well plate in 1.25×10^4 cells each/well and incubation was initiated in a CO2 incubator (5% CO2, 37° C.) in Dulbecco's modified Eagle medium (DMEM, manufactured by Nissui Seiyaku) containing 10% dialyzed fetal bovine serum (manufactured by JRH BIOSCIENCES, Inc.). The plasmid-transfected CHO transformants grew in the medium but the non-transfected cells gradually died, accordingly the medium was exchanged on Days 1 and 2 after the initiation of incubation to remove the dead cells. Approximately 20 colonies of the CHO transformants that kept growing on Days 8 to 10 after the incubation were isolated. From the cells in these colonies, cells showing high reactivity with the ligand peptide metastin (hereinafter merely referred to as h175 KB19 and h175 KB29 strains) were selected to provide for the following experiment.
# Human metastin expression CHO cell line (h175 KB19 strain is described in a separate section) and rat metastin expression CHO cell line (h175 KB29 strain is described in a separate section) were seeded in a 96-well plate (type 3904, manufactured by Corning) at 3×10^4 cells/well, followed by incubation in a CO2 incubator (5% CO2, 37° C.) for 24 hours. For the medium, MEMα medium (nucleic acid-free, manufactured by Nikken Bio Medical Laboratory) supplemented with dialyzed 10% fetal bovine serum (manufactured by Thermo, MultiSer) was used.
# 3) Loading with Fluo-4 NW in Cells
# As an assay buffer, 1× Hanks' balanced salt solution (HBSS, manufactured by GIBCO) supplemented with 0.1% BSA, 20 mM HEPES (pH 7.4, manufactured by GIBCO) and 1 mM Probenecid (manufactured by Molecular Probes) was prepared. The medium in the wells of the cell-seeded plate was removed and 100 μL each of the assay buffer (kept warm at 37° C.) was added to each well. After 10 mL of the assay buffer (the volume for assaying two plates) was charged in one Fluo-4NW dye mix (Component A, Fluo-4 NW calcium assay kit (starter pack), manufactured by Molecular Probes) bottle, the mixture was gently stirred to prepare the Fluo-4 NW loading solution. This loading solution was charged in each well by 50 μl each and reacted in a CO2 incubator (5% CO2, 37° C.) for 30 minutes for loading with Fluo-4 NW into the cells. Subsequently, the cells were settled at room temperature (25° C.) for 15 minutes and then used for assay.
# 4) Measurement of Agonist Activity […]
row,Compound,Specific Activity
1,"CNC(=N)NCCC[C@H](NC(=O)[C@H](CC1CC1)NC(=O)CNC(=O)[C@H](CC1CCCCC1)NC(=O)[C@@H](NC(=O)[C@H](CC(N)=O)NC(=O)[C@H](CCCCN)NC(=O)[C@@H](Cc1ccc(O)cc1)NC(C)=O)[C@@H](C)O)C(=O)N[C@@H](Cc1c[nH]c2ccccc12)C(N)=O [Compound No. 911, des(1)-Ac-[D-Tyr2,Lys3,Thr5,Cha6,Ala(cPr)8,Arg(Me)9,Trp10]MS10] (Ac-[dY]KNT[Cha]G[Ala(cPr)][Arg(Me)]W-NH2)",0.7
2,"CC(=O)N[C@H](Cc1ccc(O)cc1)C(=O)N[C@@H](CCC(=O)O)C(=O)N[C@@H](CC(N)=O)C(=O)N[C@H](C(=O)N[C@@H](CC1CCCCC1)C(=O)NCC(=O)N[C@@H](CC1CC1)C(=O)N[C@@H](CCCNC(=N)N)C(=O)N[C@@H](Cc1c[nH]c2ccccc12)C(N)=O)[C@@H](C)O [Compound No. 942, des(1)-Ac-[D-Tyr2,Glu3,Thr5,Cha6,Ala(cPr)8,Trp10]MS10] (Ac-[dY]ENT[Cha]G[Ala(cPr)]RW-NH2)",0.4
3,"CNC(=N)NCCC[C@H](NC(=O)[C@H](COC)NC(=O)CNC(=O)[C@H](CC1CCCCC1)NC(=O)[C@@H](NC(=O)[C@H](CC(N)=O)NC(=O)[C@H](CCC(=O)O)NC(=O)[C@@H](Cc1ccc(O)cc1)NC(C)=O)[C@@H](C)O)C(=O)N[C@@H](Cc1c[nH]c2ccccc12)C(N)=O [Compound No. 923, des(1)-Ac-[D-Tyr2,Glu3,Thr5,Cha6,Ser(Me)8,Arg(Me)9,Trp10]MS10] (Ac-[dY]ENT[Cha]GS(Me)[Arg(Me)]W-NH2)",0.5
4,"CNC(=N)NCCC[C@H](NC(=O)[C@@H](CCCNC(=O)[C@H](CC1CCCCC1)NC(=O)[C@@H](NC(=O)[C@H](CNC(N)=O)NC(=O)[C@@H]1C[C@@H](O)CN1C(=O)[C@@H](Cc1ccc(O)cc1)NC(C)=O)[C@@H](C)O)CC(C)C)C(=O)N[C@@H](Cc1c[nH]c2ccccc12)C(N)=O [Compound No. 957, des(1)-Ac-[D-Tyr2,Hyp3,Alb4,Thr5,Cha6,Gly7Ψ(CH2CH2)Leu8,Arg(Me)9,Trp10]MS10] (Ac-[dY][Hyp][Dap(CONH2)]T[Cha][X1][Arg(Me)]W-NH2)",1.1
5,"CNC(=N)NCCC[C@H](NC(=O)[C@H](CC(C)C)NC(=O)/C=C/[C@@H](O)[C@H](Cc1ccccc1)NC(=O)[C@@H](NC(=O)[C@H](CC(N)=O)NC(=O)[C@@H]1C[C@@H](O)CN1C(=O)[C@@H](Cc1ccc(O)cc1)NC(C)=O)[C@@H](C)O)C(=O)N[C@@H](Cc1c[nH]c2ccccc12)C(N)=O [Compound No. 866, des(1)-Ac-[D-Tyr2,Hyp3,Thr5,Phe6Ψ((R)CHOH—(E)CH=)Gly7,Arg(Me)9,Trp10]MS10] (Ac-[dY][Hyp]NT[X2]L[Arg(Me)]W-NH2)",1.4
6,"CCC[C@H](NC(=O)CNC(=O)[C@H](CC1CCCCC1)NC(=O)[C@@H](NC(=O)[C@H](CC(N)=O)NC(=O)[C@@H]1C[C@@H](O)CN1C(=O)[C@@H](Cc1ccc(O)cc1)NC(C)=O)[C@@H](C)O)C(=O)N[C@@H](CCCNC(=N)NC)C(=O)N[C@@H](Cc1c[nH]c2ccccc12)C(N)=O [Compound No. 921, des(1)-Ac-[D-Tyr2,Hyp3,Thr5,Cha6,Nva8,Arg(Me)9,Trp10]MS10] (Ac-[dY][Hyp]NT[Cha]G[Nva][Arg(Me)]W-NH2)",0.5
7,"CNC(=N)NCCC[C@H](NC(=O)[C@H](CC(C)C)NC(=O)C/C=C/[C@H](Cc1ccccc1)NC(=O)[C@@H](NC(=O)[C@H](CC(N)=O)NC(=O)[C@@H]1C[C@@H](O)CN1C(=O)[C@@H](Cc1ccc(O)cc1)NC(C)=O)[C@@H](C)O)C(=O)N[C@@H](Cc1c[nH]c2ccccc12)C(N)=O [Compound No. 859, des(1)-Ac-[D-Tyr2,Hyp3,Thr5,Phe6Ψ((E)CH═CH)Gly7,Arg(Me)9,Trp10]MS10] (Ac-[dY][Hyp]NT[X7]L[Arg(Me)]W-NH2)",0.7
8,"CNC(=N)NCCC[C@H](NC(=O)[C@H](CC(C)C)NC(=O)CCC(=O)[C@H](Cc1ccccc1)NC(=O)[C@@H](NC(=O)[C@H](CC(N)=O)NC(=O)[C@@H]1C[C@@H](O)CN1C(=O)[C@@H](Cc1ccc(O)cc1)NC(C)=O)[C@@H](C)O)C(=O)N[C@@H](Cc1c[nH]c2ccccc12)C(N)=O [Compound No. 851, des(1)-Ac-[D-Tyr2,Hyp3,Thr5,Phe6Ψ(COCH2)Gly7,Arg(Me)9,Trp10]MS10] (Ac-[dY][Hyp]NT[X4]L[Arg(Me)]W-NH2)",1.1
9,"CNC(=N)NCCC[C@H](NC(=O)[C@@H](/C=C/CNC(=O)[C@H](Cc1ccccc1)NC(=O)[C@@H](NC(=O)[C@H](CNC(N)=O)NC(=O)[C@H](CCC(=O)O)NC(=O)[C@@H](Cc1ccc(O)cc1)NC(C)=O)[C@@H](C)O)CC(C)C)C(=O)N[C@@H](Cc1c[nH]c2ccccc12)C(N)=O [Compound No. 908, des(1)-Ac-[D-Tyr2,Glu3,Alb4,Thr5,Gly7Ψ((E)CH═CH)Leu8,Arg(Me)9,Trp10]MS10] (Ac-[dY]E[Dap(CONH2)]TF[Glyψ(E-CHCH)Leu][Arg(Me)]W-NH2)",0.5
10,"CC(=O)N[C@H](Cc1ccc(O)cc1)C(=O)N1C[C@H](O)C[C@H]1C(=O)N[C@@H](CC(N)=O)C(=O)N[C@H](C(=O)N[C@@H](CC1CCCCC1)C(=O)NCC(=O)N[C@@H](CC1CC1)C(=O)N[C@@H](CCCNC(=N)N)C(=O)N[C@@H](Cc1c[nH]c2ccccc12)C(N)=O)[C@@H](C)O [Compound No. 940, des(1)-Ac-[D-Tyr2,Hyp3,Thr5,Cha6,Ala(cPr)8,Trp10]MS10] (Ac-[dY][Hyp]NT[Cha]G[Ala(cPr)]RW-NH2)",0.5
11,"CNC(=N)NCCC[C@H](NC(=O)[C@H](CC(C)C)NC(=O)CNC(=O)[C@H](Cc1ccncc1)NC(=O)[C@@H](NC(=O)[C@H](CC(N)=O)NC(=O)[C@@H]1C[C@@H](O)CN1C(=O)[C@@H](Cc1ccc(O)cc1)NC(C)=O)[C@@H](C)O)C(=O)N[C@@H](Cc1c[nH]c2ccccc12)C(N)=O [Compound No. 849, des(1)-Ac-[D-Tyr2,Hyp3,Thr5,Pya(4)6,Arg(Me)9,Trp10]MS10] (Ac-[dY][Hyp]NT[4Pal]GL[Arg(Me)]W-NH2)",0.9
12,"CNC(=N)NCCC[C@H](NC(=O)[C@H](CC1CC1)NC(=O)CNC(=O)[C@H](CC1CCCCC1)NC(=O)[C@@H](NC(=O)[C@H](CC(N)=O)NC(=O)[C@H](CCC(=O)O)NC(=O)[C@@H](Cc1ccc(O)cc1)NC(C)=O)[C@@H](C)O)C(=O)N[C@@H](Cc1c[nH]c2ccccc12)C(N)=O [Compound No. 895, des(1)-Ac-[D-Tyr2,Glu3,Thr5,Cha6,Ala(cPr)8,Arg(Me)9,Trp10]MS10] (Ac-[dY]ENT[Cha]G[Ala(cPr)][Arg(Me)]W-NH2)",0.4
13,"CNC(=N)NCCC[C@H](NC(=O)[C@H](CC1CCCCC1)NC(=O)CNC(=O)[C@H](CC1CCCCC1)NC(=O)[C@@H](NC(=O)[C@H](CC(N)=O)NC(=O)[C@@H]1C[C@@H](O)CN1C(=O)[C@@H](Cc1ccc(O)cc1)NC(C)=O)[C@@H](C)O)C(=O)N[C@@H](Cc1c[nH]c2ccccc12)C(N)=O [Compound No. 934, des(1)-Ac-[D-Tyr2,Hyp3,Thr5,Cha6,8,Arg(Me)9,Trp10]MS10] (Ac-[dY][Hyp]NT[Cha]G[Cha][Arg(Me)]W-NH2)",3.5
14,"CNC(=N)NCCC[C@H](NC(=O)[C@H](CC(C)C)NC(=O)CNC(=O)[C@H](Cc1cccc(C)c1)NC(=O)[C@@H](NC(=O)[C@H](CC(N)=O)NC(=O)[C@@H]1C[C@@H](O)CN1C(=O)[C@@H](Cc1ccc(O)cc1)NC(C)=O)[C@@H](C)O)C(=O)N[C@@H](Cc1c[nH]c2ccccc12)C(N)=O [Compound No. 873, des(1)-Ac-[D-Tyr2,Hyp3,Thr5,Phe(3Me)6,Arg(Me)9,Trp10]MS10] (Ac-[dY][Hyp]NT[Phe(3-Me)]GL[Arg(Me)]W-NH2)",0.8

# — US7786083B2, “Metastin derivatives and use thereof” (Takeda Pharmaceutical Company Limited, priority 2006, dated 2010)
